Experimental findings from ChEMBL document CHEMBL1221176, “Actin microfilament aggregation induced by withaferin A is mediated by annexin II” (Nat Chem Biol, 2006) are described below.

The source made the active and inactive calls. The rule behind the calls is not given here.

The target in experiment [1] is Annexin A2 (Bos taurus) (UniProt P04272). Briefly: Displacement of biotinyl-withaferin from bovine lung annexin-2 at 40 uM by chemiluminescence assay.
Experiment [2] concerns the target Annexin A2 (Homo sapiens) (UniProt P07355). Briefly: Induction of annexin-2-mediated cytotoxicity in human MCF10A cells assessed as cell morphology at 4 uM after 2 hrs by scanning electron microscopy. The settings on record: MCF-10A.
Target sequence in this assay (P07355 whole entry, looked up): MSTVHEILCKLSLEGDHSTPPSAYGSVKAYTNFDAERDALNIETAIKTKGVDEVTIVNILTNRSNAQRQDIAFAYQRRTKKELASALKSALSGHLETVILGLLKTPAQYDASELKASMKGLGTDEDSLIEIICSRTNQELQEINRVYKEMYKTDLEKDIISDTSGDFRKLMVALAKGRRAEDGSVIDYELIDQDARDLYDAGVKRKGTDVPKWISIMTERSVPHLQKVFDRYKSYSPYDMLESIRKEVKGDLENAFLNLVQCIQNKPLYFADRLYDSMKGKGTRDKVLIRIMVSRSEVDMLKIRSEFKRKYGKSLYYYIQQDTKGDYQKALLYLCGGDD
Experiment [3] has the same target. Briefly: Induction of annexin-2-mediated cytotoxicity in human CHP100 cells at 4 uM after 2 hrs by MTT assay. The class given is cell-based.
Target sequence in this assay (P07355 whole entry): as the sequence (P07355 whole entry, looked up) above
The target is the same in experiment [4]. The experiment can be described thus: Inhibition of annexin 2-mediated liposome aggregation after 15 mins by spectrophotometry.
Target sequence in this assay (P07355 whole entry): as the sequence (P07355 whole entry, looked up) above
The subject of experiment [5] is WI-38. The experiment can be described thus: Cytotoxicity against human WI38 cells assessed as cell viability pretreated after 16 hrs by MTT assay in presence of 0.5 uM cytochalasin B. The class given is functional, cell-based.
The species named for experiment [6] is Homo sapiens. The experiment can be described thus: Effect on human F-actin bundling assessed as light scattering after 1 hr by SDS-PAGE.
In experiment [7] the test system is HepG2. Briefly: Cytotoxicity against human HepG2 cells harboring annexin 2 after 48 hrs by MTT assay. It counts as functional, cell-based. (In general: Tetrazolium dyes change colour on reduction, which living cells bring about.)
The subject of another experiment is PC-3M. The experiment can be described thus: Cytotoxicity against human PC3M cells assessed as viable cell after 24 hrs by MTT assay. It counts as functional, cell-based.
The target of experiment [8] is Annexin A2 (Bos taurus) (UniProt P04272). The experiment can be described thus: Displacement of biotinyl-withaferin from bovine lung annexin-2 at 0.4 uM by chemiluminescence assay.
The test system of experiment [9] is WI-38. Briefly: Cytotoxicity against human WI38 cells assessed as cell viability pretreated after 16 hrs by MTT assay in presence of 1 uM cytochalasin B. It counts as functional, cell-based.
The next experiment concerns the target T1, Annexin A6 (Bos taurus) (UniProt P79134).
T1 sequence (whole entry): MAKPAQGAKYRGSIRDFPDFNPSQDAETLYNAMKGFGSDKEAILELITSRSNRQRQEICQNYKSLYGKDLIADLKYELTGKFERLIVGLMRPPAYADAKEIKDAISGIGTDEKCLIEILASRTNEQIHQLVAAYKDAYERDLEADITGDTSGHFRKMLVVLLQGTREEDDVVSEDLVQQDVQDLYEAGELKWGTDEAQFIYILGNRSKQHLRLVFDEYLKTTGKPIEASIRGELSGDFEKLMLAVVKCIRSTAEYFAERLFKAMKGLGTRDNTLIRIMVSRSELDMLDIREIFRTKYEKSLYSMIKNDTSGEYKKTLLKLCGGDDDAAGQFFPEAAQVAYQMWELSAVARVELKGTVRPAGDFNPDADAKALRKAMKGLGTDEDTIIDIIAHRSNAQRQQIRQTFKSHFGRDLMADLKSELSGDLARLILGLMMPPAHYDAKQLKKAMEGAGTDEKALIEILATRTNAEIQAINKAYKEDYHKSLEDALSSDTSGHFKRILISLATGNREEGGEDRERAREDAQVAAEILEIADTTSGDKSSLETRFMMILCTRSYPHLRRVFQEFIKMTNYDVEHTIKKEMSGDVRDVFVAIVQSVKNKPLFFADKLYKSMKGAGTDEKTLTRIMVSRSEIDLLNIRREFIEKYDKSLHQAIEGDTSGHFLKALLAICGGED
Briefly: Displacement of biotinyl-withaferin from bovine lung annexin 6 at 10 uM by chemiluminescence assay.

Experiment [10] concerns the target Annexin A2 (Homo sapiens) (UniProt P07355). The experiment can be described thus: Induction of annexin 2-mediated cytoskeleton aggregate accumulation in human HepG2 cells at 4 uM after 2 hrs by confocal laser scanning microscopy. It counts as cell-based.
Target sequence in this assay (P07355 whole entry): as the sequence (P07355 whole entry, looked up) above
In experiment [11] the target is Annexin A2 (Bos taurus) (UniProt P04272). The experiment can be described thus: Displacement of biotinyl-withaferin from bovine lung annexin-2 at 4 uM by chemiluminescence assay.
Experiment [12] concerns the target Annexin A2 (Homo sapiens) (UniProt P07355). Briefly: Induction of annexin 2-mediated F-actin disruption in human HepG2 cells at 4 uM after 2 hrs by confocal laser scanning microscopy. The class given is cell-based.
Target sequence in this assay (P07355 whole entry): as the sequence (P07355 whole entry, looked up) above
The target is the same in experiment [13]. The experiment can be described thus: Induction of annexin 2-mediated F-actin disruption in human WI38 cells at 4 uM after 2 hrs by confocal laser scanning microscopy. It counts as cell-based. To be noted: WI-38.
Target sequence in this assay (P07355 whole entry): as the sequence (P07355 whole entry, looked up) above
For a further experiment, the target named is T2, Annexin A4 (Bos taurus) (UniProt P13214).
T2 sequence (whole entry): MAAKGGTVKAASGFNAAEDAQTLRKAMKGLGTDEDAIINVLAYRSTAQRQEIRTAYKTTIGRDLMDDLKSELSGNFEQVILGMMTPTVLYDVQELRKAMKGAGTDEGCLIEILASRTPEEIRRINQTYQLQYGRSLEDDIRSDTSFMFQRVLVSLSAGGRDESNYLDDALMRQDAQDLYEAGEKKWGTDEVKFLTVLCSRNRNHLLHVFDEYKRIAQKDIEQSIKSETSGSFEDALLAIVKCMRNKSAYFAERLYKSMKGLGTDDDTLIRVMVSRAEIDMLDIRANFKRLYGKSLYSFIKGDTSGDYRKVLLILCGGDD
Briefly: Displacement of biotinyl-withaferin from bovine lung annexin 4 at 10 uM by chemiluminescence assay.

Experiment [14] has as its target Annexin A2 (Homo sapiens) (UniProt P07355). Briefly: Effect on human annexin 2-mediated F-actin bundling assessed as increase in light scattering after 1 hr by SDS-PAGE.
Target sequence in this assay (P07355 whole entry): as the sequence (P07355 whole entry, looked up) above
In a further experiment the target is T3, Annexin A1 (Bos taurus) (UniProt P46193).
T3 sequence (whole entry): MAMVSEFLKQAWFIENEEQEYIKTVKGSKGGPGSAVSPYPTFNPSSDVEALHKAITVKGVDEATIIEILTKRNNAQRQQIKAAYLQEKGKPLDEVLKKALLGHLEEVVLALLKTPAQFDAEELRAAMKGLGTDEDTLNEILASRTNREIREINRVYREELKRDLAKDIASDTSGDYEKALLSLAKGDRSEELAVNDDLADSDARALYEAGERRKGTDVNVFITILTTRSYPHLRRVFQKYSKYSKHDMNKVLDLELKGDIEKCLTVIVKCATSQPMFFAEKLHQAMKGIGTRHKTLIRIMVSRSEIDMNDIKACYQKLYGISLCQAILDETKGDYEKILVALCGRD
The experiment can be described thus: Displacement of biotinyl-withaferin from bovine lung annexin 1 at 10 uM by chemiluminescence assay.

The target in experiment [15] is Annexin A2 (Homo sapiens) (UniProt P07355). The experiment can be described thus: Displacement of biotinyl-withaferin from annexin-2 in human MCF10A at 0.4 to 4 uM by chemiluminescence assay.
The target of experiment [16] is Annexin A2 (Bos taurus) (UniProt P04272). The experiment can be described thus: Displacement of biotinyl-withaferin from bovine lung annexin 2 at 10 uM by chemiluminescence assay.
The target in experiment [17] is Annexin A2 (Homo sapiens) (UniProt P07355). Briefly: Binding affinity to annexin 2 assessed as inhibition of protein-lipid interaction after 15 mins by coomassine blue staining.
The test system of experiment [18] is HepG2. The experiment can be described thus: Cytotoxicity against human HepG2 cells harboring annexin 2 assessed as rapid shape change and rounding up at 4 uM after 2 hrs. It counts as functional, cell-based.
The test system of a further experiment is CHP100. Briefly: Cytotoxicity against human CHP100 cells assessed as viable cell after 24 hrs by MTT assay. The class given is functional, cell-based.
The species named for experiment [19] is Homo sapiens. The experiment can be described thus: Effect on human F-actin pellet formation after 1 hr by SDS-PAGE.
The next experiment addresses T4, Annexin A5 (Bos taurus) (UniProt P81287).
T4 sequence (whole entry): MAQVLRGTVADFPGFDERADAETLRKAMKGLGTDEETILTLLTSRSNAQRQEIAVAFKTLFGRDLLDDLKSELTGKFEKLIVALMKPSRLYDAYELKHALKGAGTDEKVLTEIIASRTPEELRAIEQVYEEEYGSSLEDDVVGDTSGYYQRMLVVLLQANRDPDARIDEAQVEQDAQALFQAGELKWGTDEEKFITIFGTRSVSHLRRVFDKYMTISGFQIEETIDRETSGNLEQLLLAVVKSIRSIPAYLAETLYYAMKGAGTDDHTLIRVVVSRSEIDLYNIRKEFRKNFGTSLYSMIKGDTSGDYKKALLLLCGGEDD
Briefly: Displacement of biotinyl-withaferin from bovine lung annexin 5 at 10 uM by chemiluminescence assay.

The target in experiment [20] is Annexin A2 (Homo sapiens) (UniProt P07355). The experiment can be described thus: Displacement of biotinyl-withaferin from annexin-2 in human CHP100 at 0.4 to 4 uM by chemiluminescence assay.

Sequence of Annexin A2 (Bos taurus) (P04272 whole entry): as the sequence (P07355 whole entry, looked up) above, with A66E, I160V, P223C, D230E, R245K, R309K counted along it

Turning to `CC1=C(C)C(=O)O[C@H]([C@](C)(O)[C@H]2CC[C@H]3[C@@H]4C[C@H]5O[C@]56[C@@H](O)C=CC(=O)[C@]6(C)[C@H]4CC[C@]23C)C1`, the result (at Annexin A2 (Bos taurus) [1]; in [2]; in experiment [3]) was inactive.
On to `CC1=C(CO)C(=O)O[C@@H]([C@@H](C)[C@H]2CC[C@H]3[C@@H]4C[C@H]5O[C@]56[C@@H](O)C=CC(=O)[C@]6(C)[C@H]4CC[C@]23C)C1`, for which the inhibition result in experiment [4] is “inactive”. In addition, the outcome (with WI-38 [5]; in the experiment filed under Homo sapiens [6]; in experiment [2]; with WI-38 [9]; at Annexin A6 (Bos taurus); at Annexin A4 (Bos taurus)) was inactive. Moreover, the result (at Annexin A1 (Bos taurus); in [17]; in the experiment filed under Homo sapiens [19]; at Annexin A5 (Bos taurus)) was inactive. The Activity entry with HepG2 [7] was “Toxic”. Further, the result (on Annexin A2 (Bos taurus) [1]; in the experiment with PC-3M; at Annexin A2 (Bos taurus) [8]; in [10]; at Annexin A2 (Bos taurus) [11]; in [12]) was Active. In addition, the result (in experiment [13]; in [14]; in experiment [15]; at Annexin A2 (Bos taurus) [16]; in the experiment with HepG2 [18]; in the experiment on CHP100) was Active. Further, the outcome in [20] was Active.
With `CCN1C(=O)C=CC1=O`, the inhibition entry in experiment [4] was “Active”. Moreover, the outcome in [17] was Active.
